Results: US10688131B2, “Peptides and scaffolds for use in immunotherapy against head and neck squamous cell carcinoma and other cancers” (Immatics Biotechnologies GmbH, priority 2016, dated 2020)

What was measured:
HLA-A*02:01 = HLA-A*02:01 (Homo sapiens, UniProt P04439, D140Y/D185E/D98H/E176V/E277Q/G131W/G231S/I119V/I121R/I166T/I218V/L300P/L318F/N151K/N90K/P208A/P217A/Q86G/Q94H/R138H/R169H/T345S); test: MHC binding assay: UV-ligand exchange with β2m ELISA; conditions: binding of HLA-class I restricted peptides to HLA-A*02:01
Excerpt: Candidate peptides for T cell based therapies according to the present invention were further tested for their MHC binding capacity (affinity). The individual peptide-MHC complexes were produced by UV-ligand exchange, where a UV-sensitive peptide is cleaved upon UV-irradiation, and exchanged with the peptide of interest as analyzed. Only peptide candidates that can effectively bind and stabilize the peptide-receptive MHC molecules prevent dissociation of the MHC complexes. To determine the yield of the exchange reaction, an ELISA was performed based on the detection of the light chain (β2m) of stabilized MHC complexes. The assay was performed as generally described in Rodenko et al. (Rodenko et al., 2006).
96 well MAXISorp plates (NUNC) were coated over night with 2 ug/ml streptavidin in PBS at room temperature, washed 4× and blocked for 1 h at 37° C. in 2% BSA containing blocking buffer. Refolded HLA-A*02:01/MLA-001 monomers served as standards, covering the range of 15-500 ng/ml. Peptide-MHC monomers of the UV-exchange reaction were diluted 100-fold in blocking buffer. Samples were incubated for 1 h at 37° C., washed four times, incubated with 2 ug/ml HRP conjugated anti-β2m for 1 h at 37° C., washed again and detected with TMB solution that is stopped with […]. Absorption was measured at 450 nm. Candidate peptides that show a high exchange yield (preferably higher than 50%, most preferred higher than 75%) are generally preferred for a generation and production of antibodies or fragments thereof, and/or T cell receptors or fragments thereof, as they show sufficient avidity to the MHC molecules and prevent dissociation of the MHC complexes.

CD8+ T cells = test: In vitro T-cell priming assay with aAPCs loaded with peptide/MHC complexes and anti-CD28 antibody, pMHC multimer readout; format: cell-based, human; conditions: for Wells positive [%]: percentage of positive wells among evaluable, HLA-A*02 restricted peptides; for Donors: percentage of positive donors; for Donors / Wells: HLA-A*02 healthy donors, three stimulation cycles; for Wells: percentage of positive wells
Excerpt: In order to obtain information regarding the immunogenicity of the TUMAPs of the present invention, the inventors performed investigations using an in vitro T-cell priming assay based on repeated stimulations of CD8+ T cells with artificial antigen presenting cells (aAPCs) loaded with peptide/MHC complexes and anti-CD28 antibody.
In order to perform in vitro stimulations by artificial antigen presenting cells loaded with peptide-MHC complex (pMHC) and anti-CD28 antibody, the inventors first isolated CD8+ T cells from fresh HLA-A*02 leukapheresis products via positive selection using CD8 microbeads (Miltenyi Biotech, Bergisch-Gladbach, Germany) of healthy donors obtained from the University clinics Mannheim, Germany, after informed consent.
PBMCs and isolated CD8+ lymphocytes were incubated in T-cell medium (TCM) until use consisting of RPMI-Glutamax (Invitrogen, Karlsruhe, Germany) supplemented with 10% heat inactivated human AB serum (PAN-Biotech, Aidenbach, Germany), 100 U/ml Penicillin/100 μg/ml Streptomycin (Cambrex, Cologne, Germany), 1 mM sodium pyruvate (CC Pro, Oberdorla, Germany), 20 μg/ml Gentamycin (Cambrex). 2.5 ng/ml IL-7 (PromoCell, Heidelberg, Germany) and 10 U/ml IL-2 (Novartis Pharma, Nürnberg, Germany) were also added to the TCM at this step.
Generation of pMHC/anti-CD28 coated beads, T-cell stimulations and readout was performed in a highly defined in vitro system using four different pMHC molecules per stimulation condition and 8 different pMHC molecules per readout condition.
The purified co-stimulatory mouse IgG2a anti human CD28 Ab 9.3 (Jung et al., 1987) was chemically biotinylated using Sulfo-N-hydroxysuccinimidobiotin as recommended by the manufacturer (Perbio, Bonn, Germany). Beads used were 5.6 μm diameter streptavidin coated polystyrene particles (Bangs Laboratories, Illinois, USA).
pMHC used for positive and negative control stimulations were A*0201/MLA-001 (peptide […] (SEQ ID NO. 157) from modified Melan-A/MART-1) and A*0201/DDX5-001 ([…] from DDX5, SEQ ID NO. 158), respectively.
800.000 beads/200 μl were coated in 96-well plates in the presence of 4×12.5 ng different biotin-pMHC, washed and 600 ng biotin anti-CD28 were added subsequently in a volume of 200 μl. Stimulations were initiated in 96-well plates by co-incubating 1×10^6 CD8+ T cells with 2×10^5 washed coated beads in 200 μl TCM supplemented with 5 ng/ml IL-12 (PromoCell) for 3 days at 37° C. Half of the medium was then exchanged by fresh TCM supplemented with 80 U/ml IL-2 and incubating was continued for 4 days at 37° C. This stimulation cycle was performed for a total of three times. For the pMHC multimer readout using 8 different pMHC molecules per condition, a two-dimensional combinatorial coding approach was used as previously described (Andersen et al., 2012) with minor modifications encompassing coupling to 5 different fluorochromes. Finally, multimeric analyses were performed by staining the cells with Live/dead near IR dye (Invitrogen, Karlsruhe, Germany), CD8-FITC antibody clone SK1 (BD, Heidelberg, Germany) and fluorescent pMHC multimers. For analysis, a BD LSRII SORP cytometer equipped with appropriate lasers and filters was used. Peptide specific cells were calculated as percentage of total CD8+ cells. Evaluation of multimeric analysis was done using the FlowJo software (Tree Star, Oregon, USA). In vitro priming of specific multimer+CD8+ lymphocytes was detected by comparing to negative control stimulations.
Exemplary flow cytometry results after TUMAP-specific multimer staining for 2 peptides of the invention are shown in FIGS. 3A and 3B together with corresponding negative controls. Additional exemplary flow cytometry results after TUMAP-specific multimer staining for 3 peptides of the invention are shown in FIGS. 4A-4C together with corresponding negative controls.

| Peptide exchange (MHC class I binding score, peptide exchange yield) (HLA-A*02:01) | Substance | Wells positive [%] (CD8+ T cells) | Donors (CD8+ T cells) | Wells (CD8+ T cells) |
| --- | --- | --- | --- | --- |
| ++++ (>75% = ++++) | 1 (GLAGGFGGPGFPV; listed as Homo sapiens) [compound 1] | + (<20% = +) |  |  |
| +++ (>50 = +++) | 3 (SLYGLGGSKRISI; listed as Homo sapiens) [compound 3] | + (<20% = +) |  |  |
| ++++ (>75% = ++++) | 8 (AQLNIGNVLPV; listed as Homo sapiens) [compound 8] | + (<20% = +) |  |  |
| +++ (>50 = +++) | 10 (TLWPATPPKA; listed as Homo sapiens) [compound 10] | + (<20% = +) |  |  |
| ++++ (>75% = ++++) | 11 (VLFSSPPVI; listed as Homo sapiens) [compound 11] | ++ (20%-49% = ++) |  |  |
| ++++ (>75% = ++++) | 12 (TLTDEINFL; listed as Homo sapiens) [compound 12] | + (<20% = +) |  |  |
| ++++ (>75% = ++++) | 13 (SLVSYLDKV; listed as Homo sapiens) [compound 13] | ++ (20%-49% = ++) |  |  |
| +++ (>50 = +++) | 16 (ALKDSVQRA; listed as Homo sapiens) [compound 16] | + (<20% = +) |  |  |
| ++++ (>75% = ++++) | 17 (SIWPALTQV; listed as Homo sapiens) [compound 17] | ++++ (>=70% = ++++) |  |  |
| +++ (>50 = +++) | 79 (GLHQDFPSVVL; listed as Homo sapiens) [compound 79] |  |  |  |
| ++++ (>75% = ++++) | 80 (GLYGIKDDVFL; listed as Homo sapiens) [compound 80] |  |  |  |
| +++ (>50 = +++) | 81 (VLAENPDIFAV; listed as Homo sapiens) [compound 81] |  |  |  |
| ++++ (>75% = ++++) | 83 (QLLQYVYNL; listed as Homo sapiens) [compound 83] |  |  |  |
| ++++ (>75% = ++++) | 84 (ALMAGCIQEA; listed as Homo sapiens) [compound 84] |  |  |  |
| +++ (>50 = +++) | 85 (QLIEKITQV; listed as Homo sapiens) [compound 85] |  |  |  |
| +++ (>50 = +++) | 86 (SLQERQVFL; listed as Homo sapiens) [compound 86] |  |  |  |
| +++ (>50 = +++) | 87 (ALPEPSPAA; listed as Homo sapiens) [compound 87] |  |  |  |
| +++ (>50 = +++) | 88 (LMAPAPSTV; listed as Homo sapiens) [compound 88] |  |  |  |
| ++++ (>75% = ++++) | 89 (VLDEGLTSV; listed as Homo sapiens) [compound 89] |  |  |  |

| Peptide exchange (MHC class I binding score, peptide exchange yield) (HLA-A*02:01) | Substance | Wells positive [%] (CD8+ T cells) | Donors (CD8+ T cells) | Wells (CD8+ T cells) |
| --- | --- | --- | --- | --- |
| ++++ (>75% = ++++) | 90 (TLNDGVVVQV; listed as Homo sapiens) [compound 90] |  |  |  |
| ++++ (>75% = ++++) | 91 (MLFENMGAYTV; listed as Homo sapiens) [compound 91] |  |  |  |
|  | 98 (SLYKGLLSV; listed as Homo sapiens) [compound 98] |  | ++++ (>=70% = ++++) | ++ (20%-49% = ++) |
|  | 101 (GLLPSAESIKL; listed as Homo sapiens) [compound 101] |  | ++++ (>=70% = ++++) | + (<20% = +) |
|  | 105 (STYGGGLSV; listed as Homo sapiens) [compound 105] |  | ++++ (>=70% = ++++) | + (<20% = +) |
|  | 108 (SLYNLGGSKRISI; listed as Homo sapiens) [compound 108] |  | ++++ (>=70% = ++++) | + (<20% = +) |
|  | 109 (KIQEILTQV; listed as Homo sapiens) [compound 109] |  | +++ (50%-69% = +++) | + (<20% = +) |
|  | 113 (NLMASQPQL; listed as Homo sapiens) [compound 113] |  | ++++ (>=70% = ++++) | +++ (50%-69% = +++) |
|  | 114 (VLVPYEPPQV; listed as Homo sapiens) [compound 114] |  | ++++ (>=70% = ++++) | + (<20% = +) |
|  | 118 (TLLQEQGTKTV; listed as Homo sapiens) [compound 118] |  | ++ (20%-49% = ++) | + (<20% = +) |
|  | 123 (LLSGDLIFL; listed as Homo sapiens) [compound 123] |  | ++++ (>=70% = ++++) | ++ (20%-49% = ++) |
|  | 127 (SLFGKKYIL; listed as Homo sapiens) [compound 127] |  | ++++ (>=70% = ++++) | ++ (20%-49% = ++) |
|  | 135 (GLFSQHFNL; listed as Homo sapiens) [compound 135] |  | ++ (20%-49% = ++) | + (<20% = +) |
|  | 137 (GLAPFLLNAV; listed as Homo sapiens) [compound 137] |  | ++++ (>=70% = ++++) | + (<20% = +) |
|  | 143 (YVYQNNIYL; listed as Homo sapiens) [compound 143] |  | ++ (20%-49% = ++) | + (<20% = +) |
|  | 145 (LLYGKYVSV; listed as Homo sapiens) [compound 145] |  | ++++ (>=70% = ++++) | ++ (20%-49% = ++) |
|  | 147 (ILMDPSPEYA; listed as Homo sapiens) [compound 147] |  | ++++ (>=70% = ++++) | +++ (50%-69% = +++) |
|  | 150 (ILAEEPIYIRV; listed as Homo sapiens) [compound 150] |  | ++++ (>=70% = ++++) | +++ (50%-69% = +++) |
|  | 154 (KMWEELPEVV; listed as Homo sapiens) [compound 154] |  | ++++ (>=70% = ++++) | + (<20% = +) |
